“Also recorded” adds a separate entry of the source.

Experimental findings from US20140220154A1, “METHOD OF TREATING PATHOLOGIC HETEROTOPIC OSSIFICATION” (The United States of America, as represented by the …, priority 2011, published 2014) are described below.

Test [1] concerns Hh pathway activation (Ptch1, Gli1, HIP). In words: Limb culture of E14.5 limbs with qRT-PCR for markers of Hh pathway activation. It counts as cell-based. The settings on record: Prx1-cre+; Gαs^flox/− mouse limbs isolated at E14.5, cultured in vitro 4 days, 5 μM ATO vs vehicle. The method, then:
FIG. 8: ATO inhibits elevated Hh signaling in Prx1-cre+; Gαs^flox/− mouse limbs. Control and Prx1-cre+; Gαs^flox/− mouse limbs were isolated at E14.5 and cultured in vitro for 4 days in the BGJB media containing vehicle or 5 μM ATO. Limbs were then collected, RNA isolated and qRT-PCR was performed for markers of Hh pathway activation (Ptch1, Gli1, HIP). In the absence of ATO, expression of these markers was elevated relative to control (6-fold, 5-fold and 17-fold, respectively).
The formation of HO indicated inappropriate upregulation of a pro-osteogenic pathway (e.g. BMP, Wnt, and/or hedgehog) outside the skeleton. As Gαs is a physiologically important activator of protein kinase A (PKA) and PKA is a potent inhibitor of Hedghehog (Hh) signaling (Jiang, et al., 1995, Cell 80, 563-572), loss of Gαs is likely associated with an upregulation of Hh that was driving HO formation. Accordingly, Hh signaling would be elevated prior to HO formation and overlap in its tissue expression. Quantitative reverse transcriptase polymerase chain reaction (qRT-PCR) was performed on RNA isolated from control and Prx1-cre+; Gαs^flox/− mutant limb tissue at E14.5, prior to HO formation. The following primers were used for qRT-PCR: […]
Relative expression was quantified using the […] method (Livak, et al., 2001, Methods 25, 402-08). […]

In test [2] the test system is Prx1-cre+; Gαs^flox/− mice. The experiment in a line: HO formation in vivo in Prx1-cre+; Gαs^flox/− pups from treated pregnant females (Alizarin Red-Alcian Blue staining). On the set-up: species or system mouse. As to the method: FIG. 12: ATO inhibits HO formation in Prx1-cre+; Gαs^flox/− mice. Pregnant females were injected with either […] ATO or vehicle at E13.5, E15.5 and E17.5 and embryos were collected at E18.5. An Alizarin Red-Alcian Blue skeletal prep was performed to assay for the presence of HO between the digits.
Embryos were skinned and placed in 100% EtOH overnight to fix. Embryos were then placed in staining solution for 2 days (50 mL staining solution=2.5 mL 0.3% Alcian Blue, 2.5 mL 0.1% Alizarin Red, 2.5 mL 100% glacial acetic acid, 42.5 mL 70% EtOH). Embryos were rinsed with water, then placed in 1% KOH until destained, and finally in 80% glycerol for storage.
Inhibitors of Hh signaling were tested for an ability to inhibit the formation of HO in vivo. Matings were established between Prx1-cre+; Gαs^flox/− male and Gαs^flox/flox female mice. Pregnant females at gestational days E13.5, E15.5 and E17.5 were injected intraperitoneally with 5 mg/kg ATO. Pregnant mice are first weighed and then injected with care so as to avoid injection into uteri. Mice were sacrificed at E18.5, pups were collected, and stained for bone formation by Alizarin Red-Alcian Blue staining. Prx1-cre+; Gαs^flox/− pups from mice injected with vehicle control produced HO as evidenced by enhanced red staining in soft tissues. […]

The subject of test [3] is bone marrow mesenchymal cells (BMMC). In words: Osteoblastic differentiation of BMMC after removal of Gαs (Von Kossa, Alizarin red staining). Type of test: cell-based, mouse. The settings on record: osteogenic media 7 days. As to the method: FIG. 13: Removal of Gαs from bone marrow mesenchymal cells (BMMC) promotes osteoblastic differentiation, which is inhibited by Hh antagonist, GANT-58 treatment in a dose-dependent manner. BMMCs were isolated from Gαsflox/flox mice and infected with a Cre-containing adenovirus (ad-Cre) to remove Gαs or GFP-containing adenovirus (Ad-GFP) control. Cells were grown to confluence and placed in osteogenic media for 7 days. […] No effect of GANT-58 observed in Ad-GFP treated cells (panels c and e compared to a).
HO requires an inappropriate increase in bone forming cells (osteoblasts) The role of Gαs in promoting osteoblastic differentiation was tested. Bone marrow mesenchymal cells (BMMC) (also called mesenchymal stem cells) were isolated from Gαs^flox/flox mice. BMMC were isolated by flushing the bone marrow cavity of 6 week old mice and plating cells in Alpha-MEM, 20% FBS, 100 U/mL penicillin, 100 μg/mL streptomycin, 2 mM glutamine. Prior to reaching confluence cells were treated with a Cre- or GFP-containing adenovirus. Upon reaching confluence cells were switched to osteogenic media (DMEM, 10% lot-selected FBS, 100 U/mL penicillin, […] streptomycin, 2 mM glutamine, 10^-4M L-ascorbic acid 2-phosphate and 10 mM α-glycerol phosphate). These cells were infected with a Cre-containing adenovirus to remove Gαs and cultured under conditions that favor osteogenic differentiation. […]

Regarding arsenic trioxide [ATO], in test [1], the “expression of markers of Hh pathway activation (Ptch1, Gli1, HIP) by qRT-PCR” value is “dramatic reduction in the Hh pathway activation; also recorded: significantly reduced”. Further, the “HO in forelimb and hind limb, Alizarin Red-Alcian Blue staining” value in test [2] (pregnant females injected intraperitoneally with 5 mg/kg ATO at E13.5, E15.5 and E17.5, pups collected at E18.5, vs vehicle control) is recorded as “significant reduction in HO”. In addition, the “levels of HO in forelimbs and hind limbs, Alizarin Red-Alcian Blue skeletal prep” value in test [2] (pregnant females injected with 5 μg/kg ATO at E13.5, E15.5 and E17.5, embryos collected at E18.5, relative to vehicle) is recorded as “reduced levels of HO”.

Consider `c1cc(-c2sc(-c3ccncc3)c(-c3ccncc3)c2-c2ccncc2)ccn1` [GANT-58], for which the “tissue mineralization, Von Kossa staining” value in test [3] (Ad-Cre infected BMMC (Gαs removed)) was “inhibited by GANT-58 in a dose-dependent manner”. Further, in test [3] (Ad-GFP treated BMMC (control)), the “effect on mineralization in control cells, Von Kossa staining” value is on record as “No effect”.
